# Data published in publication PMC3685217, “Activation of IP3 receptors requires an endogenous 1-8-14 calmodulin-binding motif” (Biochemical Journal, 2012).
# Values joined by “and” are separate entries in the source; they are usually repeats but may differ in a detail not shown here. Equal entries are not always repeated.
# Assays:
# [1] = target: T1, NT of rat IP3R1 with Y66E mutation (Rattus norvegicus, UniProt P29994, DEL318-332/Y66E); test: [3H]IP3 equilibrium-competition binding to NT Y66E
# T1 construct: The NT (residues 1–604) and IBC (residues 224–604) of rat IP3R1; His6 (N, cleaved yes); made in house; host or cells: Escherichia coli BL21(DE3)
# T1 sequence (P29994 1-589 isoform P29994-2 Y66E limits assumed): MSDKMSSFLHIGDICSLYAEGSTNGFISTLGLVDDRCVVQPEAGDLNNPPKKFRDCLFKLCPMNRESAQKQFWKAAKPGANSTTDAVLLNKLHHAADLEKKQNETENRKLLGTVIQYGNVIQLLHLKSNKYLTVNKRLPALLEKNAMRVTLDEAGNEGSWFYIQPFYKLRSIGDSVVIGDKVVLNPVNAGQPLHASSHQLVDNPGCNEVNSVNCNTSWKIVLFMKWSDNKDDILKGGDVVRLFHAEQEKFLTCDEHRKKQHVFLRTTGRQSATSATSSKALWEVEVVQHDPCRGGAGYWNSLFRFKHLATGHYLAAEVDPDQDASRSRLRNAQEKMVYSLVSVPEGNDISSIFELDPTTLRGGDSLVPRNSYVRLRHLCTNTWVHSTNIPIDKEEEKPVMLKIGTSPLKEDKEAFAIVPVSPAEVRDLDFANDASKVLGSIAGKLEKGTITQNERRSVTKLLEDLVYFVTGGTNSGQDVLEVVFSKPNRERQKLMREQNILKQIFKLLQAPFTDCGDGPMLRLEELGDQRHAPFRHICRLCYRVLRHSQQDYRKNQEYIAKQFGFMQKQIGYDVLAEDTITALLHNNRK
# Text: (§1) The NT (residues 1–604) and IBC (residues 224–604) of rat IP3R1 were amplified by PCR from the full-length receptor clone lacking the SI splice region (GenBank® accession number GQ233032.1) as described previously. The fragments were ligated into pTrcHis A (Invitrogen) to allow expression of N-terminally His6-tagged proteins. Mutagenesis of the 1-8-14 motif within the NT used the QuikChange® II XL site-directed mutagenesis kit (Stratagene) for single mutants (F53E, L60E, Y66E and K52E) and the QuikChange® multi-site-directed mutagenesis kit for the double mutant (F53E and Y66E). The primers used are listed in Supplementary Table S2 (at http://www.BiochemJ.org/bj/449/bj4490039add.htm). The same primers and conditions were used for mutagenesis of full-length IP3R using IP3R1 in the pENTR 1A vector. Full-length constructs were subcloned into pcDNA3.2/V5-DEST for expression in DT40 cells. The complete sequence of every mutant construct was verified by sequencing.
# (§2) The pTrcHis constructs were used for expression of N-terminally His6-tagged proteins in Escherichia coli strain BL21(DE3) cells. Before use for [^3H]IP3 binding, proteins were cleaved from the His6 tags using biotinylated thrombin (Novagen) at the engineered thrombin-cleavage site. Complete cleavage was verified by Western blotting using an anti-His6 antibody. The proteins were used for [^3H]IP3 binding without further purification.
# (§3) Equilibrium-competition binding assays were performed at 4°C for 5 min in CLM (500 μl) with a free Ca^2+ concentration of 220 nM and containing [^3H]IP3 (0.75–1.5 nM), bacterial lysate (10 μg of protein for IBC and 100 μg of protein for NT) or cerebellar membranes (50 μg of protein) and competing ligands. Non-specific binding was defined by addition of 10 μM IP3. Bound and free [^3H]IP3 were separated by centrifugation at 20000 g for 5 min, after addition of poly(ethylene glycol) (15% final concentration) and γ-globulin (0.75 mg) for soluble proteins. Results were analysed by fitting to a Hill equation (using GraphPad Prism) from which the IC50 (half-maximal inhibitory concentration) and thereby the Kd (equilibrium dissociation constant) were calculated.
# [2] = target: T2, NT (residues 1–604) of rat IP3R1 (Rattus norvegicus, UniProt P29994, DEL318-332); test: [3H]IP3 equilibrium-competition binding to NT
# T2 construct: The NT (residues 1–604) and IBC (residues 224–604) of rat IP3R1; His6 (N, cleaved yes); made in house; host or cells: Escherichia coli BL21(DE3)
# T2 sequence (P29994 1-589 isoform P29994-2 limits assumed, stated change not applied): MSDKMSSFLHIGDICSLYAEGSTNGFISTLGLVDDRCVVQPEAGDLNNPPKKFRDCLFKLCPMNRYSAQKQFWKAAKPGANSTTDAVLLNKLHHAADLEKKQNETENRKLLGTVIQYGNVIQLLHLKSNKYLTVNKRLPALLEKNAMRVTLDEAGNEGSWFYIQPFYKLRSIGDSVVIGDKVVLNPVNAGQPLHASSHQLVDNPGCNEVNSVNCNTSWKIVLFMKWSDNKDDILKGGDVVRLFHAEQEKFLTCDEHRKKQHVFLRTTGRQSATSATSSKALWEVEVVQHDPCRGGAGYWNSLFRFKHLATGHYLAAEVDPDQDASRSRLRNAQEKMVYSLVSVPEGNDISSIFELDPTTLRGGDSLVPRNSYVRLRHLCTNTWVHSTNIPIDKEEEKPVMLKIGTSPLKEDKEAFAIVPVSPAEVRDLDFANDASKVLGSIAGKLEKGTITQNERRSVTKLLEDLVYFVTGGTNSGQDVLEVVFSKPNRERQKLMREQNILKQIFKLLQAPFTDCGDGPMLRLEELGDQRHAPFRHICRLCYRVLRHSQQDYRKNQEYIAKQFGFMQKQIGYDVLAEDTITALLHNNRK
# Text: as §1, §2, §3
# [3] = target: T3, NT of rat IP3R1 with F53E mutation (Rattus norvegicus, UniProt P29994, DEL318-332/F53E); test: [3H]IP3 equilibrium-competition binding to NT F53E
# T3 construct: The NT (residues 1–604) and IBC (residues 224–604) of rat IP3R1; His6 (N, cleaved yes); made in house; host or cells: Escherichia coli BL21(DE3)
# T3 sequence (P29994 1-589 isoform P29994-2 F53E limits assumed): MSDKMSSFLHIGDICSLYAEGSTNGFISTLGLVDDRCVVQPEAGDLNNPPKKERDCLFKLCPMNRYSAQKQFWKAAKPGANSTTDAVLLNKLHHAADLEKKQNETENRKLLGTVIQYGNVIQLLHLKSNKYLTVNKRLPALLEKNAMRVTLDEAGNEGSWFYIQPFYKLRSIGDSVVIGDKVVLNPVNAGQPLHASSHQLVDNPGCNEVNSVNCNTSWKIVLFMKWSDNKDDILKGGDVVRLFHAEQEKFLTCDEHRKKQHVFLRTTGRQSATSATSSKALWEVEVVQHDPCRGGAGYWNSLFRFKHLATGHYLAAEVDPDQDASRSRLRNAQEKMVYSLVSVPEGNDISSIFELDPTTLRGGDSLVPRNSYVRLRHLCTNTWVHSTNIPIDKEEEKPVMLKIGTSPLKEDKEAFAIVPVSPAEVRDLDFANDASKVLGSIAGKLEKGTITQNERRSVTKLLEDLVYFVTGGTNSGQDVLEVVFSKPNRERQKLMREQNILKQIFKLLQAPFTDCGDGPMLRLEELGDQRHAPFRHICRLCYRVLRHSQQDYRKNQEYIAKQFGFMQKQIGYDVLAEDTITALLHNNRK
# Text: as §1, §2, §3
# [4] = target: T4, NT of rat IP3R1 with L60E mutation (Rattus norvegicus, UniProt P29994, DEL318-332/L60E); test: [3H]IP3 equilibrium-competition binding to NT L60E
# T4 construct: The NT (residues 1–604) and IBC (residues 224–604) of rat IP3R1; His6 (N, cleaved yes); made in house; host or cells: Escherichia coli BL21(DE3)
# T4 sequence (P29994 1-589 isoform P29994-2 L60E limits assumed): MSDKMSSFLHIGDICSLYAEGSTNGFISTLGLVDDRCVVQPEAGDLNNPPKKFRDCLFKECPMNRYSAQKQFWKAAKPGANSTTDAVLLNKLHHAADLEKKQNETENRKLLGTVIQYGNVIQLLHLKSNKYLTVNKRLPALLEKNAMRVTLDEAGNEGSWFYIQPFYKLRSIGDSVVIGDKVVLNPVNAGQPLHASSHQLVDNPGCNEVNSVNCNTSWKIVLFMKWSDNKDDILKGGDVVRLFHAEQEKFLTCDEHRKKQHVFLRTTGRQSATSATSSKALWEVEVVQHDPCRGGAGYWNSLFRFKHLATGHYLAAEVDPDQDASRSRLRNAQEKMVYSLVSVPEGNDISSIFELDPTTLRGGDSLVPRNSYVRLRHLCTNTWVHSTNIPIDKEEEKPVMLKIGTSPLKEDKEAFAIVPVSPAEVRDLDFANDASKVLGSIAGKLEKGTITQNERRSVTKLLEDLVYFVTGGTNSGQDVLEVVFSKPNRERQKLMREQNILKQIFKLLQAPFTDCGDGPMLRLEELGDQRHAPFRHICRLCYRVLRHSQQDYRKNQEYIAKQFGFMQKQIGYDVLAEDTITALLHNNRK
# Text: as §1, §2, §3
# [5] = target: T5, full-length IP3R (wild-type IP3R1) (Rattus norvegicus, UniProt P29994); test: [3H]IP3 binding to full-length IP3R in permeabilized DT40 cells; conditions: 100 μM peptide, [3H]IP3 1.5 nM, not increased for L60E or FY mutants
# T5 construct: expressed in transfected cells; host or cells: DT40 cells (chicken B cells, all endogenous IP3R genes disrupted) stably expressing rat IP3R1
# [6] = target: T6, IBC (residues 224–604) of rat IP3R1 (Rattus norvegicus, UniProt P29994, DEL318-332); test: [3H]IP3 equilibrium-competition binding to IBC
# T6 construct: IBC (residues 224–604) of rat IP3R1 were amplified by PCR; His6 (N, cleaved yes); made in house; host or cells: Escherichia coli BL21(DE3)
# T6 sequence (P29994 224-589 isoform P29994-2 limits assumed, stated change not applied): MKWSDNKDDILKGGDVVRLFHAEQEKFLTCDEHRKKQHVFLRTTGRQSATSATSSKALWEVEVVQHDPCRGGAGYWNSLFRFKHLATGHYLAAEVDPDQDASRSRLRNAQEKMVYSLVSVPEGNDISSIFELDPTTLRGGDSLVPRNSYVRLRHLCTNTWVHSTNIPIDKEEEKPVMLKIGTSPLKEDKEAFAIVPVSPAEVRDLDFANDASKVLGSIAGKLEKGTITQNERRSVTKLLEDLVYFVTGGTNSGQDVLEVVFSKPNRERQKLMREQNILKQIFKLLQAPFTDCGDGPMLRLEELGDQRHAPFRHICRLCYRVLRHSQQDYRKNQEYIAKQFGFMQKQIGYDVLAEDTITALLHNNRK
# Text: as §1, §2, §3
"effect on specific [3H]IP3 binding to NT Y66E ([1]; 100 μM peptide, [3H]IP3 1.5 nM)","effect on specific [3H]IP3 binding to the NT ([2]; 100 μM peptide, [3H]IP3 1.5 nM)","effect on specific [3H]IP3 binding to NT F53E ([3]; 100 μM peptide, [3H]IP3 1.5 nM)","effect on specific [3H]IP3 binding to NT L60E ([4]; 100 μM peptide, [3H]IP3 1.5 nM)",effect on IP3 binding to full-length wild-type IP3R [5],"Affinity relative to NT (heparin), Kd^NT/Kd^mutant ([1]; fragment NT Y66E) [fold]","Kd, ng/ml (heparin) ([1]; fragment NT Y66E) [ng/mL]","pKd, /g/ml heparin ([1]; fragment NT Y66E, mean±S.E.M., n≥3)","Kd, ng/ml (heparin) ([6]; fragment IBC) [ng/mL]","Affinity relative to NT (heparin), Kd^NT/Kd^mutant ([6]; fragment IBC (SD removed))","pKd, /g/ml heparin ([6]; fragment IBC, mean±S.E.M., n≥3)","Affinity relative to NT (heparin), Kd^NT/Kd^mutant ([2]; fragment NT) [fold]","Kd, ng/ml (heparin) ([2]; fragment NT) [ng/mL]","pKd, /g/ml heparin ([2]; fragment NT, mean±S.E.M., n≥3)","Affinity relative to NT (heparin), Kd^NT/Kd^mutant ([3]; fragment NT F53E) [fold]","Kd, ng/ml (heparin) ([3]; fragment NT F53E) [ng/mL]","pKd, /g/ml heparin ([3]; fragment NT F53E, mean±S.E.M., n≥3)","Affinity relative to NT (heparin), Kd^NT/Kd^mutant ([4]; fragment NT L60E) [fold]","Kd, ng/ml (heparin) ([4]; fragment NT L60E) [ng/mL]","pKd, /g/ml heparin ([4]; fragment NT L60E, mean±S.E.M., n≥3)",Compound
neither peptide had any effect,increased,neither peptide had any effect,neither peptide had any effect,increased,,,,,,,,,,,,,,,,"CC[C@H](C)[C@H](NC(=O)[C@H](C)NC(=O)[C@H](CCCNC(=N)N)NC(=O)[C@@H](NC(=O)[C@H](C)NC(=O)[C@H](Cc1c[nH]cn1)NC(=O)CNC(=O)[C@@H](NC(=O)[C@H](CCCCN)NC(=O)[C@H](CCC(N)=O)NC(=O)[C@H](Cc1c[nH]c2ccccc12)NC(=O)[C@H](CCCCN)NC(=O)[C@H](CCCNC(=N)N)NC(=O)[C@H](CCCNC(=N)N)NC(C)=O)[C@@H](C)O)C(C)C)C(=O)NCC(=O)N[C@@H](CCCNC(=N)N)C(=O)N[C@@H](CC(C)C)C(N)=O [MLCK peptide, Ac-RRKWQKTGHAVRAIGRL-NH2]"
,,,,,1.4,171,6.77±0.03 /g/ml,117,2 fold and 2.0 fold,6.93±0.04 /g/ml,1,239,6.62±0.06 /g/ml,2,120,6.92±0.06 /g/ml,1.2,200,6.70±0.04 /g/ml,heparin
